According to US5747523A, “Substituted ethyl α,α-diarylmethyl ether derivatives” (Guilford Pharmaceuticals Inc., priority 1996, dated 1998):

Experiments:
MPTP induced toxicity = conditions: mice; literature; cited from earlier work
[1] = target: T1, cocaine binding site of the human dopamine transporter (Homo sapiens, UniProt Q01959); assay: [3H]CFT binding (cocaine analogue displacement at the cocaine site of DAT); conditions: hDAT CHO cells; 5 nM [3H]CFT; 2 h pre-incubation at 37° C., 6 min at room temperature
T1 construct: expressed in transfected cells

[2] = target: T2, human dopamine transporter (Homo sapiens, UniProt Q01959); assay: [3H]dopamine uptake inhibition in hDAT cells; format: cell-based; conditions: hDAT CHO cells; 100 nM [3H]dopamine; 2 h pre-incubation at 37° C., 6 min at room temperature; read-out: Effect on Dopamine Uptake (Kiuptake)
T2 construct: expressed in transfected cells

[3] = target: T2, human dopamine transporter; assay: uptake to binding ratio (Kiuptake/Kibinding); conditions: hdat cho cells
Description: The experimental procedures for the assay of compounds are as follows.
All assays were performed using Chinese Hamster Ovary cells stably expressing the human dopamine transporter cDNA (HDAT cells). hDAT cells were distributed in 96-well plates and grown 3 to 4 days to confluency (~10^5 cells/well) in Ham's F12 medium containing 10% fetal calf serum.

[4] = tested on: mesolimbic dopamine neurons; conditions: rat; literature; cited from earlier work

T2 sequence (Q01959 whole entry): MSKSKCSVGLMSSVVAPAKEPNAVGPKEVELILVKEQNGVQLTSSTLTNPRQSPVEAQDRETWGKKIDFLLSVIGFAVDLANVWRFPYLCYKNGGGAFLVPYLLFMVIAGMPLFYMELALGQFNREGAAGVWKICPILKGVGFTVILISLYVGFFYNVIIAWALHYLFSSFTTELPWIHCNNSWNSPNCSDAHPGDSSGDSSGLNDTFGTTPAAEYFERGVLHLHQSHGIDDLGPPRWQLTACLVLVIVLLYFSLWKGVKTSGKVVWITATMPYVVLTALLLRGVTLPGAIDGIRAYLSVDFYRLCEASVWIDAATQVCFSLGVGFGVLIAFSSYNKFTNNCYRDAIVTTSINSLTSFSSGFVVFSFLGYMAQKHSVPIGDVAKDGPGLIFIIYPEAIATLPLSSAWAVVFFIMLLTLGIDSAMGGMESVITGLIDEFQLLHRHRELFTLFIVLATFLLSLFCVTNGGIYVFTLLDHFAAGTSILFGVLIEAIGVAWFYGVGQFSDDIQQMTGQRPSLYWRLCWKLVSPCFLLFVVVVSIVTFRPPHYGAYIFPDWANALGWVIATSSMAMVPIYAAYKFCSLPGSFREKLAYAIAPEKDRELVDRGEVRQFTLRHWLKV
T1 sequence (Q01959 whole entry): as above

Compound	preventing MPTP induced toxicity (MPTP induced toxicity)	Ki [1]	Ki [2]	Uptake to Binding Ratio (Kiuptake/Kibinding) [3]	attenuation of cocaine-induced activation of mesolimbic dopamine neurons [4]
CS(=O)(=O)O.CS(=O)(=O)O.Fc1ccc(CCCN2CCN(CCOC(c3ccc(F)cc3)c3ccc(F)cc3)CC2)cc1 [GBR 13,098]	effective at preventing MPTP induced toxicity	–	–	–	–
Fc1ccc(C(OCCN2CCCC2)c2ccc(F)cc2)cc1 [1-[2-[Bis(4-fluorophenyl)methoxy]ethyl]pyrrolidine]	–	361 nM	947 nM	2.623	–
Fc1ccc(C(OCCN2CCN(CCCc3ccccc3)CC2)c2ccc(F)cc2)cc1 [GBR 12909]	–	–	–	–	attenuate cocaine-induced activation of mesolimbic dopamine neurons
Fc1ccc(C(OCCN2CCCCC2)c2ccc(F)cc2)cc1 [1-[2-[Bis(4-fluorophenyl)methoxy]ethyl]piperidine]	–	211 nM	609 nM	2.896	–
